Assay results: PubChem BioAssay (NCI)
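Exposure lasted 48 hours, with cells grown in 96-well plates and compounds tested at five concentrations. At the GI50, growth is halved. TGI is the concentration that stops growth completely.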

Tests used:
Assay in all cases: NCI anticancer screen, dose series, 48 h
[1] = tested on: RPMI-8226 leukemia
[2] = tested on: OVCAR-5 ovarian
[3] = tested on: MDA-MB-231 breast
[4] = tested on: PC-3 prostate
[5] = tested on: 786-0 renal
[6] = tested on: MCF7 breast
[7] = tested on: OVCAR-3 ovarian
[8] = tested on: SNB-75 CNS
[9] = tested on: HCT-15 colon
[10] = tested on: SF-539 CNS
[11] = tested on: A498 renal
[12] = tested on: TK-10 renal
[13] = tested on: RXF 393 renal
[14] = tested on: MDA-MB-468 breast
[15] = tested on: SK-OV-3 ovarian
[16] = tested on: SNB-19 CNS
[17] = tested on: SN12C renal
[18] = tested on: SK-MEL-5 melanoma
[19] = tested on: SK-MEL-28 melanoma
[20] = tested on: DU-145 prostate
[21] = tested on: NCI-H23 lung
[22] = tested on: NCI-H522 lung
[23] = tested on: T-47D breast
[24] = tested on: NCI/ADR-RES ovarian
[25] = tested on: COLO 205 colon
[26] = tested on: HOP-92 NSCLC
[27] = tested on: M14 melanoma
[28] = tested on: K-562 leukemia
[29] = tested on: SK-MEL-2 melanoma
[30] = tested on: HOP-62 NSCLC

CC(=O)c1ccc(Nc2nc(SCCC(C)C)nc(-c3ccc(F)cc3)c2C#N)cc1
GI50 [1]: > 100 µM | TGI [1]: > 100 µM | GI50 [2]: > 100 µM | TGI [2]: > 100 µM | GI50 [3]: 2.94 µM | TGI [3]: 10.2 µM | GI50 [4]: 24.7 µM | TGI [4]: > 100 µM | GI50 [5]: 3.09 µM | TGI [5]: 8.47 µM | GI50 [6]: 7.51 µM | TGI [6]: > 100 µM | GI50 [7]: 13.3 µM | TGI [7]: 72.8 µM | GI50 [8]: 2.06 µM | TGI [8]: 21.6 µM | GI50 [9]: 9.87 µM | TGI [9]: > 100 µM | GI50 [10]: 3.69 µM | TGI [10]: 16 µM | GI50 [11]: 2.84 µM | TGI [11]: 8.8 µM | GI50 [12]: 3.78 µM | TGI [12]: 12.7 µM | GI50 [13]: 3.53 µM | TGI [13]: 16.8 µM | GI50 [14]: 10.2 µM | TGI [14]: 50.3 µM | GI50 [15]: 9.37 µM | TGI [15]: 26.2 µM | GI50 [16]: 3.7 µM | TGI [16]: 14.5 µM | GI50 [17]: 24 µM | TGI [17]: > 100 µM | GI50 [18]: 13.8 µM | TGI [18]: 53.4 µM | GI50 [19]: 29.6 µM | TGI [19]: > 100 µM | GI50 [20]: 10.7 µM | TGI [20]: > 100 µM | GI50 [21]: 5.86 µM | TGI [21]: 39.6 µM | GI50 [22]: 24 µM | TGI [22]: > 100 µM | GI50 [23]: 4.19 µM | TGI [23]: 74.5 µM | GI50 [24]: 4.31 µM | TGI [24]: 27.5 µM | GI50 [25]: 7.42 µM | TGI [25]: > 100 µM | GI50 [26]: 2.95 µM | TGI [26]: 16.6 µM | GI50 [27]: 24.2 µM | TGI [27]: > 100 µM | GI50 [28]: 32.2 µM | TGI [28]: > 100 µM | GI50 [29]: > 100 µM | TGI [29]: > 100 µM | GI50 [30]: 3.99 µM
